Assay [1] has as its system mCMV285, mCMV575 (mCMV UL36 homologue). Briefly: HAUbVME labeling of purified recombinant mCMV285 / mCMV575, SDS-PAGE and immunoblot. In kind it is binding, mouse cytomegalovirus. An excerpt:
(§1) To investigate functionality of this minimal DUB consensus domain we cloned the relevant genomic fragments for heterologous expression and subsequent biochemical characterization. The corresponding DNA fragments, encoding for AA 1-205 of EBV (EBV205) and AA 1-285 of mCMV (mCMV285), were PCR-cloned into pET28 according to standard procedures. Following expression in E. coli BL21-DE3, the fragments bearing a N-terminal His-tag were purified using a Ni-NTA resin (Qiagen) and subsequently subjected to a gel filtration column (S75 HiLoad, Amersham Pharmacia Biotech) equilibrated in storage buffer (50 mM Tris, 50 mM KCl, 50 mM NaCl, 0.5 mM EDTA, 2 mM DTT, 10% (v/v) glycerol, pH 7.5) to achieve apparent homogeneity. To address whether the purified constructs display DUB activity, we used HA-tagged Ub-vinylmethyl ester (HAUbVME), a probe that acts as suicide substrate for DUBs by forming a thioether bond to the active site cysteine. Reactions were performed using final concentrations of 1 μM enzyme (EBV205 or mCMV285) in the absence and presence of 2 μM HAUbVME in reaction buffer (50 mM Tris, 100 mM NaCl, 1 mM DTT pH 7.5) for 30 min at 37° C. Following incubation, samples were boiled in reducing sample buffer and subjected to SDS-PAGE.
(§2) In the case of mCMV, we also constructed a longer variant that terminates at position 575 (mCMV575).
Background: Immunoblotting shows a protein as a band on a membrane.

A further assay deals with UL36^USP. Briefly: Electrophilic probe labeling of HSV-1 infected HFF cell lysates, immunoblot. In kind it is binding. To be noted: for Labeling / reaction of UL36^USP by electrophilic probe: HSV-infected HFF lysates, immunoblot. How it is done: HFFs were infected with HSV-1 KOS at an MOI of 10 and harvested by trypsinolysis at the indicated times post infection. Cells were washed 1× in PBS and pelleted by centrifugation in a microcentrifuge at 3,000×g for 20 minutes at 4° C. Cells were lysed by adding 2× the pellet volume of NP40 lysis buffer (150 mM NaCl, 50 mM Tris pH 7.4, 5 mM MgCl2, 0.5 mM EDTA, 2 mM DTT, 2 mM ATP, 0.5% NP40) and rocking at 4° C. for 1 hour. Cell lysates were centrifuged at 12,000×g for 20 minutes at 4° C. Protein concentration of supernatants was established by Bradford assay and lysates were standardized to 5 μg/μl by the addition of the required volume of NP40 lysis buffer. For each labeling reaction, 50 μg of lysate was incubated with 0.8 μg of probe in a total volume of 60 μL of homogenization buffer (50 mM Tris pH 7.5, 5 mM MgCl2, 0.5 mM EDTA, 2 mM DTT, 2 mM ATP, 250 mM sucrose). For reactions involving NEM, lysates were incubated at room temperature for 30 minutes with 5 mM NEM prior to addition of probe. Reactions were incubated for 30 minutes at R.T. Samples were boiled in reducing sample buffer and separated by SDS-PAGE. Proteins were transferred to PVDF membranes and immunoblotted with mouse monoclonal anti-HA antibody (12CA5) at 1:4000 dilution followed by goat anti-mouse IgG-HRP (Southern Biotech) at 1: 10,000 dilution. Blots were developed using Western Lightning chemiluminescence reagent (Perkin Elmer).
To profile DUB activity during HSV-1 infection, we used HA-tagged Ub-vinylmethyl ester (HAUbVME) (Borodovsky et al., 2002). Human foreskin fibroblasts (HFFs) were infected with HSV-1 at a multiplicity of infection of 10, harvested at 4, 6, 9, 12, 22 and 30 hours post-infection (p.i.), and lysed.
To address whether UL36^USP labeling by HAUbVME was a consequence of the Ub or the VME moiety, we incubated lysates of HSV-infected HFFs at 24 hours p.i. with related electrophilic derivatives (Borodovsky et al., 2002). […] There are a number of Ub-like (UbL) proteins in eukaryotes (Larsen and Wang, 2002). This family of UbL proteins has diversified functionally to cover many cellular pathways: SUMO proteins function in nuclear signaling and transcription (Hay, 2005); ISG15 is an interferon-inducible gene product (Ritchie and Zhang, 2004); and the closest homolog of Ub, Nedd8, is an activator of the cullin family of E3 Ub ligases (Petroski and Deshaies, 2005; Willems et al., 2004). Probes derived from Ub and UbL modifiers target proteases that are either specific for a single Ub/UbL or selective for a limited number of these proteases (Borodovsky et al., 2002; Hemelaar et al., 2004). We explored the reactivity of UL36^USP with Ub and UbL-derived probes to determine its specificity. We incubated lysates of mock-infected and HSV-infected HFFs at 24 hours p.i. with either HAUbVME or with one of three UbL probes, HA-SUMO-1-VME, HA-ISG15-VME or FLAG-Nedd8-VS (FIG. 4B).

The test system of another assay is mCMV285, mCMV575. Briefly: UbAMC hydrolysis assay with mCMV285 and mCMV575. In kind it is biochemical, mouse cytomegalovirus. To be noted: enzyme 100 pM, Ub-AMC 100 nM. How it is done:
(§3) We next tested the ability of the enzymes to cleave Ub-AMC (Ub C-terminal 7-amido-4-methylcoumarin, Boston Biochem). UbAMC hydrolysis assays were performed in reaction buffer supplemented with BSA (50 μg/ml) by incubating the enzymes (100 pM) with a large excess of Ub-AMC (100 nM). […] To address this issue, we tested the potential of several inhibitors to block DUB activity in Ub-AMC hydrolysis assays. Enzymes were preincubated for 1 h with a 100-fold molar excess of electrophilic derivatives of Ub, SUMO, NEDD8, and ISG15, all carrying a VME moiety as the electrophile at their C-terminus.

The target of assay [2] is T1, EBV205 (AA 1-205 of EBV BPLF1) (Epstein-Barr virus, UniProt P03186).
T1 construct: encoding for AA 1-205 of EBV (EBV205) and AA 1-285 of mCMV (mCMV285); His-tag (pET28) (N); made in house; host or cells: E. coli BL21-DE3
Type of assay: binding.
Excerpt: as §1, §2

The target in a further assay is T2, EBV205 (Epstein-Barr virus, UniProt P03186).
T2 construct: encoding for AA 1-205 of EBV (EBV205) and AA 1-285 of mCMV (mCMV285); His-tag (pET28) (N); made in house; host or cells: E. coli BL21-DE3
In kind it is biochemical. Particulars: enzyme 100 pM, Ub-AMC 100 nM. How it is done: as §3

In the next assay the target is T3, His6UL36^USP (Human herpesvirus 1, UniProt P10220).
T3 construct: amino acids 1 to 533 of the UL36 gene product from HHV HSV1; 6-His (pET-28a(+)) (N); 6-His (pET-28a(+)) (C); made in house; host or cells: E. coli BL21 or BL21 RIPL
Briefly: Cleavage of Ub-AMC by recombinant UL36^USP. Type of assay: biochemical, HSV-1. Particulars: 10 pmol inhibitor pre-incubated 30 minutes with ~0.1 pmol enzyme. The procedure:
Recombinant UL36^USP and UL36^USP/C65A (˜0.1 pmol) were incubated in 125 μl kinetics buffer (50 mM HEPES, pH 7.5, 0.5 mM EDTA) supplemented with 1 mM DTT at room temperature for 10 minutes. To this was added 75 μl of Ub-AMC (250 nM in kinetics buffer) and AMC liberation was measured at 25° C. For inhibition experiments, one of UbVME, SUMO-VME, ISG15-VS, or Nedd8-VS (10 pmol) was incubated with recombinant UL36^USP (˜0.1 pmol) for 30 minutes at room temperature. To this was added 75 μl of Ub-AMC (250 nM in kinetics buffer) and AMC liberation was measured. Cleavage experiments were performed in triplicate. All fluorescence measurements were made using a Wallac Victor^3 1420 fluorescence/luminescence plate reader (Perkin Elmer) using 380 nm excitation and 460 nm emission wavelengths, with 5 second intervals between measurements. Data were exported as an Excel file and plotted as mean values of replicate experiments using Kaleidagraph v3.6 (Synergy Software).
In a typical eukaryotic cell, the presence of multiple DUBs, whose substrate pool and catalytic activities may overlap, confounds straightforward analysis of the activity of any one particular DUB. Although we have found excellent correlation between labeling of polypeptides with the Ub/UbL probes and their identification as active DUBs, the probes are covalent inactivators and cannot be used to assess enzymatic (i.e. catalytic) peptidase activity. To validate the activity of UL36^USP as a protease with specificity for Ub-modified substrates, we cloned a sequence spanning the 533 N-terminal amino acids of HSV-1 UL36^USP into a His-tagged expression vector (His6-UL36^USP). We also generated a point mutant of this construct in which the active site cysteine residue, Cys^65, was replaced by alanine (His6UL36^USP/C65A). The proteins were expressed, purified over Ni-NTA resin and evaluated for their ability to cleave Ub C-terminal 7-amido-4-methylcoumarin (Ub-AMC) (Dang et al., 1998). […] The results are consistent with the labeling experiments using UbL probes with HSV-1-infected lysates (FIG. 4B).

[3] abbreviates: pretreatment with 10 mM NEM for 10 min.
Where [4] appears, read: 1 μM enzyme, 2 μM HAUbVME, 30 min at 37° C.
[5] abbreviates: preincubated 1 h with 100-fold molar excess of inhibitor.

For `CCN1C(=O)C=CC1=O` [NEM, N-ethylmaleimide], the “Effect on reaction of mCMV575 with HAUbVME” value in assay [1] (mCMV575 variant) was “NEM-sensitive”. Also, the “Effect on labeling of mCMV285 with HAUbVME probe” value in assay [1] (setting [3]) was “completely blocked labeling”. For the same compound, the “Effect on labeling of the 57 kDa polypeptide with HAUbVME” value with UL36^USP (HSV-1 infected HFF lysates, 5 mM NEM 30 minutes prior to probe) is given as “inhibited”. The “Sensitivity of UbAMC hydrolysis by mCMV285 / mCMV575 to NEM” value with mCMV285, mCMV575 is “sensitive to NEM”. In assay [2] (setting [3]), the “Effect on labeling of EBV205 with HAUbVME probe” value was “completely blocked labeling”. Also, the “Sensitivity of UbAMC hydrolysis by EBV205 to NEM” value on EBV205 is listed as “sensitive to NEM”.
Consider “FLAG-Nedd8-VS: UbL probe (9.7 kDa), FLAG-tagged Nedd8 vinylsulfone”, for which the “Labeling / reaction of UL36^USP by electrophilic probe” value (“Labeling / reaction of UL36^USP” below) in the assay with UL36^USP is listed as “did not observe reaction”.
In the case of “HA-ISG15-VME: UbL probe (18.8 kDa), HA-tagged ISG15 vinylmethyl ester”, the “Labeling / reaction of UL36^USP” value in the assay on UL36^USP is on record as “did not observe reaction”.
On the same count and under the same terms, the same measure for “HA-SUMO-1-VME: UbL probe (12.8 kDa), HA-tagged SUMO-1 vinylmethyl ester”: “did not observe reaction”.
As to “HAUbVME: HA-tagged Ub-vinylmethyl ester, electrophilic Ub probe forming thioether bond to DUB active site cysteine”, the “Covalent modification of mCMV285 by probe (shift in electrophoretic mobility)” value in assay [1] (setting [4]) is reported as “covalent modification”. Also, the “Labeling / reaction of UL36^USP” value with UL36^USP was “observed labeling”. Moreover, in assay [2] (setting [4]), the “Covalent modification of EBV205 by probe (shift in electrophoretic mobility)” value is listed as “covalent modification”.
Regarding “HAUbVS: HAUb-vinylsulfone, Ub-derived electrophilic probe”, the “Labeling / reaction of UL36^USP” value with UL36^USP is given as “comparably robust labeling”.
For the compound “ISG15-VS: electrophilic ISG15 derivative used as inhibitor”, the “Inhibition of Ub-AMC cleavage by His6UL36^USP” value (“Inhibition of Ub-AMC cleavage” for short) in the assay with His6UL36^USP was “rates nearly identical to hydrolysis in the absence of these inhibitors”.
“Nedd8-VS: electrophilic Nedd8 vinylsulfone derivative used as inhibitor”: the “Inhibition of Ub-AMC cleavage” value in the assay with His6UL36^USP was “rates nearly identical to hydrolysis in the absence of these inhibitors”.
As for “SUMO-1-VS: electrophilic SUMO-1 derivative used as inhibitor”, in the assay with His6UL36^USP, the “Inhibition of Ub-AMC cleavage” value is “rates nearly identical to hydrolysis in the absence of these inhibitors”.
As to “UbVME: electrophilic derivative of Ub carrying a VME moiety at its C-terminus, covalent DUB inhibitor”, the “Inhibition of UbAMC hydrolytic activity of mCMV285 / mCMV575” value in the assay with mCMV285, mCMV575 (setting [5]) is reported as “completely inhibited”. Further, the “Inhibition of Ub-AMC cleavage” value with His6UL36^USP is recorded as “complete inhibition”. The “Inhibition of UbAMC hydrolytic activity of EBV205” value with EBV205 (setting [5]) was “completely inhibited”.
